From BindingDB's records for doi:10.1021/jm00011a005 (University of Minnesota, 1995)

Molecular target: Aldehyde dehydrogenase (Saccharomyces cerevisiae)
Assay: In vitro inhibition against yeast Aldehyde dehydrogenase

IC50 [µM]	SMILES
240	CC(=O)ON1C(=O)c2ccccc2S1(=O)=O [Acetic acid 1,1,3-trioxo-1,3-dihydro-1lambda*6*-benzo[d]isothiazol-2-yl ester]
> 1000	O=C1c2ccccc2S(=O)(=O)N1O [2-Hydroxy-1,1-dioxo-1,2-dihydro-1lambda*6*-benzo[d]isothiazol-3-one]
